Measured values as given in patent US8435987B2, “Pyrazolo-pyridinone and pyrazolo-pyrazinone compounds as P38 modulators and methods of use thereof” (Amgen Inc., priority 2007, dated 2013).
Like-named read-outs stand apart in the source and are kept apart here.

Experiments:
recombinant human p38α = recombinant human p38α (Homo sapiens, UniProt Q16539); test: Purified and activated recombinant human p38α HTRF assay; type: biochemical; settings: 1 nM p38α, 50 μM ATP, 100 nM GST-ATF2-Avitag, read-out: p3a IC550
Protocol: Purified and Activated Recombinant Human p38α Assay
• Kinase Reaction Buffer: Kinase reaction buffer for p38α HTRF assays consists of 50 mM Tris-pH 7.5, 5 mM MgCl2, 0.1 mg/mL BSA, 100 μM Na3VO4 and 0.5 mM DTT. • HTRF Detection Buffer: HTRF detection buffer contains 100 mM HEPES-pH 7.5, 100 mM NaCl, 0.1% BSA, 0.05% Tween-20, and 10 mM EDTA. • Serial Dilution of Compounds: Compounds were dissolved in 100% DMSO and serially diluted (3 fold, 10 point) in a polypropylene 96-well microtiter plate (drug plate). The final starting concentration of compounds in the p38a enzymatic assays was 1 μM. Columns 6 and 12 (HI controls and LO controls respectively) in the drug plate were reserved as controls and contained only DMSO. • Kinase Reaction: The p38α kinase reactions were carried out in a polypropylene 96-well black round bottom assay plate in total volume of 30 μL kinase reaction buffer. Appropriate concentration of purified and activated enzyme (recombinant human) was mixed with indicated concentration of ATP and 100 nM GST-ATF2-Avitag, in the presence or absence (HI control) of Compound. See table below for actual concentrations. In the absence of substrate, the background was measured as LO control. The reaction was allowed to incubate for 1 hour at RT. • Assay Reagent Concentrations: The final reagent concentrations were 1 nM p38α and 50 μM ATP. […] After 60 minutes incubation at room temperature, the assay plate was read in a Discovery Plate Reader. The wells were excited with coherent 320 nm light and the ratio of delayed ([…] post excitation) emissions at […] (native europium fluorescence) and 665 nm (europium fluorescence transferred to allophycocyanin—an index of substrate phosphorylation) was determined (Park et al, 1999). • Data Analysis: The proportion of substrate phosphorylated in the kinase reaction in the presence of compound compared with that phosphorylated in the presence of DMSO vehicle alone (HI control) was calculated using the formula: % control (POC)=(compound−average LO)/(average HI−average LO)*100. Data (consisting of POC and inhibitor concentration in μM) was fitted to a 4-parameter equation (y=A+((B−A)/(1+((x/C)AD))), where A is the minimum y (POC) value, B is the maximum y (POC), C is the x (compound concentration) at the point of inflection and D is the slope factor, using a Levenburg-Marquardt non-linear regression algorithm.
The inhibition constant (Ki) of the inhibitor was estimated from the IC50 (compound concentration at the point of inflection C) using the Cheng-Prussof equation: Ki=IC50/(1+S/Km), where S is the ATP substrate concentration, and Km is the Michaelis constant for ATP as determined experimentally. All results were expressed as the mean± the standard error of the mean. Data acquisition and non-linear regression algorithms were performed using Activity Base v5.2 and XL-fit software v4.1 respectively. All data was archived using Activity Base v5.2 software.

[1] = tested on: TNF-α secretion by LPS-treated THP1 cells; test: Lipopolysaccharide-activated THP1 cell TNF production assay; type: cell-based; settings: Homo sapiens, THP-1, 3 hours, read-out: IC50 in the THP-1 cellular TNF production assay
Protocol: Lipopolysaccharide-Activated THP1 Cell TNF Production Assay
THP1 cells were resuspended in fresh THP1 media (RPMI 1640, 10% heat-inactivated FBS, 1×PGS, 1×NEAA, plus 30 μM βME) at a concentration of 1.5×10^6 cells per mL. One hundred microliters of cells per well were plated in a polystyrene 96-well tissue culture plate. 1.5 micrograms per mL of bacterial LPS was prepared in THP1 media and transferred to the first 11 columns of a 96-well polypropylene plate. Column 12 contained only THP1 media for the LO control. Compounds were dissolved in 100% DMSO and serially diluted 3 fold in a polypropylene 96-well microtiter plate (drug plate). Columns 6 and 12 were reserved as controls (HI controls and LO controls respectively) and contained only DMSO. 10 μL of LPS followed by one microliter of inhibitor compound from the drug plate was transferred to the cell plate. The treated cells were induced to synthesize and secrete TNF-α in a 37° C. humidified incubator with 5% CO2 for 3 hours. Fifty microliters of conditioned media was transferred to a 96-well MULTI-ARRAY™ 96-well small spot plate—custom coated with MAB610 containing 100 μL of 2× Read Buffer P supplemented with 0.34 nM AF210NA polyclonal Ab labeled with ruthenium (MSD-Sulfo-TAG™—NHS ester). After an overnight incubation at room temperature with shaking, the reaction was read on the Sector Imager™ 6000. […] The amount of secreted TNF-α in the presence of AMG compounds compared with that in the presence of DMSO vehicle alone (HI control) was calculated using the formula: % control (POC)=(cpd−average LO)/(average HI−averageLO)*100. Data (consisting of POC and inhibitor concentration in μM) was fitted to a 4-parameter equation (y=A+((B−A)/(1+((x/C)^D))), where A is the minimum y (POC) value, B is the maximum y (POC), C is the x (cpd concentration) at the point of inflection and D is the slope factor) using a Levenburg-Marquardt non-linear regression algorithm.

[2] = tested on: secreted IL-8 by whole blood activated with TNF-α; test: Inhibition of TNF-α induced IL-8 in 50% human whole blood; type: cell-based
Protocol: Inhibition of TNF-α Induced IL-8 in 50% Human Whole Blood
Test compounds were evaluated in vitro for the ability to inhibit the production of secreted IL-8 by whole blood activated with TNF-α. Fresh human whole blood was obtained from healthy, non-medicated volunteers in sodium heparin tubes.
Compound Dilution—Assay Procedure
Test compounds are serially diluted 1:3 in DMSO and then diluted 1:250 into R10 (RPMI 1640, 10% human serum AB, 1× pen/strep/glutamine) to the 4× working concentration to be used in the assay. 100 ul heparinized whole blood is plated into wells of 96 well flat bottom plates. 50 ul of either 4× compound or DMSO control (Final DMSO concentration is 0.1%) are added to the appropriate wells. Plates are incubated for 1 hour at 37 degrees Celsius. 50 ul of 4× TNF-α (4 nM TNF-α, for a final concentration of 1 nM) or control (media alone) is added to the appropriate wells (Total volume=200 ul). Plates are incubated overnight (16-18 hours). 100 ul of supernatant is collected and stored in 96-well round bottom polypropylene plates at −80 degrees Celsius or assayed immediately for IL-8.
Cytokines are measured on antibody (Ab) sandwich ECL based 96-well detection plates. 20 ul of supernatant are added to plate and plate is sealed and shaken at RT for 1 hour. 130 ul of detection Ab cocktail is added and plates are sealed and shaken for 1 hour in the dark at RT. Plates are read on MSD Sector HTS instrument. Data are analyzed and IC50 values generated using Activity Base and Xl-fit programs.

[3] = 50% human whole blood, TNF-α (1 nM final) induced IL-8, 16-18 hours, read-out: WB TNF/IL8 IC50
[4] = Homo sapiens, read-out: IC50, TNF-α induced IL-8 in 50% human whole blood

recombinant human p38α, sequence (Q16539 whole entry): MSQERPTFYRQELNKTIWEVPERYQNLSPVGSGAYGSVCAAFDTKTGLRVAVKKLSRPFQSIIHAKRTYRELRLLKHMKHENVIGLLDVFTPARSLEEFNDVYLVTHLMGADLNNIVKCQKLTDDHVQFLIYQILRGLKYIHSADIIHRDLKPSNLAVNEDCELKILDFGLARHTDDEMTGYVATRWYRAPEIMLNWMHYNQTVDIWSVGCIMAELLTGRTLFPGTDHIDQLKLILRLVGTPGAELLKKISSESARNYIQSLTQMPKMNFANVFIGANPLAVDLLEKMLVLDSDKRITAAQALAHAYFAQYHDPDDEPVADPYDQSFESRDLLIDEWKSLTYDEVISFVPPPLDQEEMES

Compound | IC50 (recombinant human p38α) [nM] | IC50 [1] [nM] | IC50 [2, 3] [nM] | IC50 [2, 4] [nM]
Cc1ccc2c(NC3CC3)noc2c1-c1cc2cnn(-c3ccc(F)cc3F)c2n(C)c1=O [Example 8, 5-(3-(cyclopropylamino)-6-methyl-1,2-benzisoxazol-7-yl)-1-(2,4-difluorophenyl)-7-methyl-1,7-dihydro-6H-pyrazolo[3,4-b]pyridin-6-one] | 4.4 | ≤ 100 | 1.8 | ≤ 100
Cc1ccc2c(NC3CC3)noc2c1-c1nc2cnn(-c3ccc(F)cc3F)c2n(C)c1=O [Example 10, 5-(3-(cyclopropylamino)-6-methyl-1,2-benzisoxazol-7-yl)-1-(2,4-difluorophenyl)-7-methyl-1,7-dihydro-6H-pyrazolo[3,4-b]pyrazin-6-one] |  |  | 8.9 | 
CNc1noc2c(-c3nc4cnn(-c5ccc(F)cc5F)c4n(C)c3=O)c(C)ccc12 [Example 2, 1-(2,4-difluorophenyl)-7-methyl-5-(6-methyl-3-(methylamino)benzo[d]isoxazol-7-yl)-1H-pyrazolo[4,3-b]pyrazin-6(7H)-one] | 28.5 | ≤ 100 |  | ≤ 100
CCn1c(=O)c(-c2c(C)ccc3c(NC4CC4)noc23)cc2cnn(-c3ccccc3F)c21 [Example 7, 5-(3-(cyclopropylamino)-6-methyl-1,2-benzisoxazol-7-yl)-7-ethyl-1-(2-fluorophenyl)-1,7-dihydro-6H-pyrazolo[3,4-b]pyridin-6-one] | 2 | ≤ 100 | 1.3 | ≤ 100
Cc1ccc2c(NC3CC3)noc2c1-c1nc2cnn(-c3c(F)cccc3F)c2n(C)c1=O [Example 9, 5-(3-(cyclopropylamino)-6-methyl-1,2-benzisoxazol-7-yl)-1-(2,6-difluorophenyl)-7-methyl-1,7-dihydro-6H-pyrazolo[3,4-b]pyrazin-6-one] |  |  | 8 | 
Cc1ccc2c(NC3CC3)noc2c1-c1cc2cnn(-c3cc(F)ccc3F)c2n(C)c1=O [Example 6, 5-(3-(cyclopropylamino)-6-methyl-1,2-benzisoxazol-7-yl)-1-(2,5-difluorophenyl)-7-methyl-1,7-dihydro-6H-pyrazolo[3,4-b]pyridin-6-one] | 8.9 | ≤ 100 | 1.6 | ≤ 100
